Laboratory results from PubChem BioAssay (NCI).
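Results reflect a 48-hour exposure of cells in 96-well plates to compound at five concentrations. Here, GI50 denotes the concentration required for 50% inhibition of growth. TGI: concentration producing complete growth inhibition.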

Key:
Assay in all cases: DTP human tumour cell line panel, 48 h
[1] = test system: HL-60(TB) leukemia
[2] = test system: CCRF-CEM leukemia
[3] = test system: NCI-H522 lung
[4] = test system: SK-MEL-28 melanoma
[5] = test system: SK-MEL-5 melanoma
[6] = test system: HCT-15 colon
[7] = test system: HT29 colon
[8] = test system: CAKI-1 renal
[9] = test system: SF-295 CNS
[10] = test system: M14 melanoma

Row | Compound | GI50 [1] | TGI [1] | GI50 [2] | TGI [2] | GI50 [3] | TGI [3] | GI50 [4] | TGI [4] | GI50 [5] | TGI [5] | GI50 [6] | TGI [6] | GI50 [7] | TGI [7] | GI50 [8] | TGI [8] | GI50 [9] | TGI [9] | GI50 [10] | TGI [10]
1 | O=C(C=C=Nc1ccccc1)C(=O)N=C=Cc1ccccc1 | 1.7 µM | 6.98 µM | 0.724 µM | > 100 µM | 1.81 µM | 4.97 µM | 1.88 µM | 3.85 µM | 5.16 µM | 17.7 µM | 1.42 µM | 4.05 µM | 1.89 µM | 4.74 µM | 1.73 µM | 6.05 µM | 14.5 µM | 40.9 µM | 2.16 µM | 6.46 µM
2 | COc1ccc2c(c1)c1c3n2CCNN=C3CCC1 | – | > 71.4 µM | – | > 100 µM | – | > 100 µM | – | > 100 µM | – | > 100 µM | – | > 100 µM | – | > 100 µM | – | > 100 µM | – | > 100 µM | – | > 100 µM
3 | O=C(/C=C/c1cccc2ccccc12)Nc1ncc(Cc2ccccc2)s1 | 0.669 µM | 3.58 µM | 0.852 µM | > 100 µM | 0.703 µM | > 32.8 µM | 3.89 µM | > 100 µM | 1.8 µM | > 100 µM | 0.507 µM | > 100 µM | 1 µM | > 47 µM | 0.609 µM | 3.71 µM | 0.443 µM | 2.33 µM | 0.649 µM | 3.79 µM
4 | H-QIYKKYRTWYRKAWKVLGKV-NH2 | 2.84 µM | 8.76 µM | 4.14 µM | > 100 µM | 25.8 µM | > 100 µM | 4.89 µM | 22.5 µM | 2.84 µM | 8.7 µM | 2.92 µM | 17 µM | 20.8 µM | > 100 µM | 3.89 µM | 19 µM | 4.72 µM | 23.9 µM | 3.06 µM | 14.1 µM
5 | O=C(/C=C/C1C(=O)NC(=O)NC1=O)CC(=O)C(=O)Nc1cc(Cl)c(Cl)cc1Cl | – | > 100 µM | – | > 100 µM | – | > 100 µM | – | > 100 µM | – | > 100 µM | – | > 100 µM | – | > 100 µM | – | > 100 µM | – | > 100 µM | – | > 100 µM
6 | Cc1cc(Nc2nc(-c3ccncc3)nc3ccccc23)n[nH]1 | 10.7 µM | > 100 µM | 25.2 µM | > 100 µM | 13.1 µM | > 100 µM | 88.8 µM | > 100 µM | 52.6 µM | > 100 µM | 1.77 µM | > 100 µM | 2.88 µM | > 100 µM | 0.58 µM | > 100 µM | 17.4 µM | > 100 µM | 10.3 µM | > 100 µM
